Source: EP1655287A1, “PROBE FOR DISEASES WITH AMYLOID ACCUMULATION, AMYLOID-STAINING AGENT, REMEDY AND PREVENTIVE FOR DISEASES WITH AMYLOID ACCUMULATION AND DIAGNOSTIC PROBE AND STAINING AGENT FOR NEUROFIBRILLARY CHANGE” (priority 2003, dated 2005)
Where two headings read alike, the source gives them in different places.

Legend:
[1] = Acute toxicity testing, intravenous administration; assay type: in vivo; conditions: male Crj:CD1 mice, via tail vein, observed up to 7 days; for MTD at 168 h: mouse, in vivo, iv, read-out: Maximum Tolerated Dose (mg/kg, intravenous administration)
Description: The following explanation is made of testing methods for properties of the compounds of the present invention. (A) Testing of acute toxicity Acute toxicity of the inventive compounds was determined employing mice by intravenous administration. Male Crj:CD1 mice were used and divided into groups of 4 mice, with an average weight of each group of 31-32 g. […] Up to 7 days after administration, observations were made.

[2] = mouse, in vivo, iv, 2 min
Description: (§1) (B) Testing of blood-brain barrier permeability Measurements of blood-brain barrier permeability were made according to the following procedures. Compounds of the present invention were intravenously administered to mice to determine their in vivo blood-brain barrier permeability. • (1) Mice utilized Slc:ICR weighing 30-40 g (7 weeks old, n=3) (Nippon SLC). • (2) A test compound was dissolved in a mixture of 1N HCl, polyethylene glycol 400, and DMSO, or in DMSO or ethyl alcohol, and then diluted with purified water, and injected via tail vein. Two minutes after administration, the mice, under ether anesthesia, were subjected to taking blood from the abdominal aorta with a heparin-treated syringe and removing the brain. • (3) After taking blood, blood samples were centrifuged at 14,000 rpm at 4°C for 10 minutes, and their supernatants were kept at -80°C as plasma sample. The brain (including cerebellum) was kept at -80°C after its removal. • (4) The plasma sample, when used, was thawed, diluted with purified water, and then applied to a conditioned C18 solid-phase extraction cartridge (bond elute C18, 200 mg, Varian), followed by elution with methyl alcohol. Alternatively, after thawing the plasma sample, a diethyl ether/cyclohexane mixture was added, and the mixture was shaken, and then centrifuged to separate an oil layer. • (5) The brain material, when used, was subjected to measuring its wet weight with the brain remaining frozen, and saline was added to the brain for homogenization. The homogenate was centrifuged for 10 minutes, and the supernatant was applied to a conditioned C18 solid-phase extraction cartridge and eluted with methyl alcohol. Alternatively, after measuring the wet weight of the frozen brain, a diethyl ether/cyclohexane mixture was added to the brain, and the mixture was homogenized, shaken, and then centrifuged to separate an oil layer. • (6) The absorbance and fluorescence were detected employing high performance liquid chromatography. • (7) For each of the plasma and brain, the content of the test compound in the plasma or brain (%ID (injected dose)/ml or g) was determined, relative to the administered dose.

Amyloid β-protein = test: Screening of the degree of β-structure recognition (fluorescence, in the presence of Congo red); assay type: binding; conditions: test compound 5 µM, amyloid β-protein 5 µM, Congo red 0.1 µM, phosphate buffer pH 7.4
senile plaques = target: T1, senile plaques (Homo sapiens, UniProt P05067); test: Staining of senile plaques and diffuse plaques in brain sections, compared with thioflavin S, BSB or anti-Aβ antibody 6F/3D immunostaining; assay type: binding, patient with Alzheimer's disease; conditions: 100 µM compound in 50% ethanol; for staining properties in sections of the brain of a patient with Alzheimer's disease: compared with thioflavin S (and BSB) on adjacent sections; for staining properties compared with immunostaining of anti-Aβ antibody 6F/3D: adjacent sections immunostained with 6F/3D
T1 construct: The former has, as the main component, amyloid β-protein (Aβ protein) taking β-sheet structures; from tissue; host or cells: paraffin-embedded temporal lobe or hippocampus sections of an Alzheimer's disease patient's brain (Fukushimura Hospital)
T1 sequence (P05067 672-713 limits assumed): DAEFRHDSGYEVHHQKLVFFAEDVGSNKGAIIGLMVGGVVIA
Source text: The following explanation is made about testing of staining properties of the compounds of the present invention on brain sections of an Alzheimer's disease patient. • (1) Temporal lobe or hippocampus specimens of the brain of a patient who had been definitely diagnosed pathologically as Alzheimer's disease and of a normal aged individual were used. These specimens were provided from Fukushimura Hospital, our joint research facility, with the consent to their use for research purpose received from the bereaved family of the patient (BF Research Laboratories Institutional Ethics Board Permission No. RS-99-02). • (2) The brain tissues embedded in paraffin were sliced 6 or 8 µm thick, extended on slides, and dried. The paraffin-embedded brain sections were deparaffined by washing sequentially with xylene (10 minutes, twice), 100% ethanol (15 minutes, twice), 95% ethanol (15 minutes, twice), and a stream of water (10 minutes). • (3) Pre-treatment for staining with compounds of the present invention involved treating the sections for eliminating self-fluorescence due to lipofuscin. First, the deparaffined sections were immersed into a 10% formalin solution for 60 minutes and washed with PBS for 5 minutes, followed by immersion into a 0.25% solution of KMnO4 for 90 minutes. After washing twice with PBS for 2 minutes each, the sections were immersed into a solution of 0.1% K2S2O5/oxalic acid for about 30 seconds each, and then washed three times with PBS for 2 minutes each. • (4) About 150 µl of a 100 µM solution of a compound of the present invention dissolved in 50% ethanol was added dropwise onto the sections and allowed the reaction to be carried out for 10 minutes. The sections were dipped into tap water five times, and then 50% ethanol three to five times, followed by immediate classification. After that, the sections were immersed into PBS for 60 minutes, enclosed with Fluor Save Reagent (Calbiochem), and examined under a fluorescent microscope (Nikon, Eclips E800). Pictures were taken using a digital camera (Plaroid PDMCII).
Immunostaining was carried out as follows. • (a) Procedures for immunostaining amyloid β-protein: • (1) After the sections were deparaffined, the sections were washed twice in distilled water for 2 minutes each, and tissues were marked with an Immunopen. About 150 µl of formic acid was added dropwise and allowed to stand at room temperature for 5 minutes. The sections were washed with tap water for 5 minutes and immersed into cold PBS-Tween 20 for 2 minutes, and then about 150 µl of a 0.05% trypsin solution was added dropwise and allowed the reaction to be carried out at 37°C for 15 minutes. • (2) In an ice bath, the sections were washed twice with cold PBS-Tween 20 for 5 minutes each, and two drops of blocking serum were added and allowed the reaction to be carried out at 37°C for 15 minutes. Excess water was removed, and about 150 µl of 6F/3D, an antibody specific to amyloid β-protein (DAKO; diluted 1:50) was added dropwise and allowed the reaction to be carried out at 37°C for 1 hour. • (3) Further, after washing five times with cold PBS-Tween 20 for 2 minutes each, two drops of a solution of goat antimouse IgG (H+L) conjugated to biotin were added and allowed the reaction to be carried out at 37°C for 1 hour. After that, the sections were washed three times with cold PBS-Tween 20 for 2 minutes each, and two drops of ABS solution (a streptavidin-biotin-peroxidase complex solution) were added and allowed to stand for 30 minutes. The sections were again washed three times with cold PBS-Tween 20 for 2 minutes each, and about 150 µl of DAB solution (prepared by dissolving 10 mg of DAB in 20 ml of 0.05 mol/l Tris-HCl buffer and adding 100 µl of 3% hydrogen peroxide immediately before use) were added and allowed the color to be developed sufficiently. Then, the sections were washed with distilled water for 1 minute to stop the reaction, enclosed, and examined under a microscope.

[3] = Blood-brain barrier permeability after intravenous administration; conditions: for Plasma: mice, content in plasma two minutes after intravenous administration; for tissue uptake at 2 min: mouse, brain, iv
Description: as §1

Molecule	Maximum Tolerated Dose (mg/kg, intravenous administration) [1]	Brain [2]	Plasma [2]	Degree of β-structure recognition (%) (Amyloid β-protein)	staining properties in sections of the brain of a patient with Alzheimer's disease (senile plaques)	MTD at 168 h [1] [mg/kg]	staining properties compared with immunostaining of anti-Aβ antibody 6F/3D (senile plaques)	Plasma [3]	tissue uptake at 2 min [3] [%ID/g]
2-[2-(5-dimethylaminothiazol-2-yl)ethenyl]benzoxazole [BF-215]	≧ 10 mg/kg	8.8 %ID/g or ml	2.5 %ID/g or ml	82.6	stains senile plaques	–	–	–	–
CN(C)c1ncc(/C=C/c2nc3ccc(OCCF)cc3o2)s1 [BF-227, 2-[2-(2-dimethylaminothiazol-5-yl)ethenyl]-6-(2-fluoroethyloxy)benzoxazole]	–	–	–	70.2	mainly stains senile plaques	≥ 10	stains senile plaques (Fig. 16, wedge-shaped arrowheads) and diffuse plaques	2.1 %ID/g or ml	7.9
CN(C)c1ncc(/C=C/c2nc3ccccc3o2)s1 [BF-197, 2-[2-(2-dimethylaminothiazol-5-yl)ethenyl]benzoxazole]	–	–	–	71.8	mainly stains senile plaques	≥ 10	stains senile plaques	1.9 %ID/g or ml	15
Cc1nc(/C=C/c2cnc(N(C)C)s2)oc1C [BF-214, 2-(dimethylamino)-5-[2-(4,5-dimethyloxazol-2-yl)ethenyl]thiazole]	–	–	–	58.9	stains senile plaques	≥ 10	–	2.1 %ID/g or ml	8.8
